Source: patent US20100216779A1 (GLAXOSMITHKLINE LLC, priority 2007, published 2010)

Tests used:
Type in all cases: cell-based
[1] = test system: COLO205 (colon); assay: Inhibition of cell proliferation, CellTiter-Glo, COLO205; conditions: Homo sapiens, COLO 205, 72 h
Outline: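 Exponentially growing COLO205 cells in medium with 10% FBS were plated below 2000 cells/well at 37 °C, 5% CO2. Untreated wells served as controls.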

[2] = biological target: T1, human IGF-1R (NIH-3T3 cells over expressing human IGF-1R) (Homo sapiens, UniProt P08069); assay: IGF-1R cellular autophosphorylation (DELFIA); conditions: IGF-1 stimulated
T1 construct: expressed in transfected cells; host or cells: NIH-3T3 (mouse fibroblasts)
T1 sequence (P08069 31-1367): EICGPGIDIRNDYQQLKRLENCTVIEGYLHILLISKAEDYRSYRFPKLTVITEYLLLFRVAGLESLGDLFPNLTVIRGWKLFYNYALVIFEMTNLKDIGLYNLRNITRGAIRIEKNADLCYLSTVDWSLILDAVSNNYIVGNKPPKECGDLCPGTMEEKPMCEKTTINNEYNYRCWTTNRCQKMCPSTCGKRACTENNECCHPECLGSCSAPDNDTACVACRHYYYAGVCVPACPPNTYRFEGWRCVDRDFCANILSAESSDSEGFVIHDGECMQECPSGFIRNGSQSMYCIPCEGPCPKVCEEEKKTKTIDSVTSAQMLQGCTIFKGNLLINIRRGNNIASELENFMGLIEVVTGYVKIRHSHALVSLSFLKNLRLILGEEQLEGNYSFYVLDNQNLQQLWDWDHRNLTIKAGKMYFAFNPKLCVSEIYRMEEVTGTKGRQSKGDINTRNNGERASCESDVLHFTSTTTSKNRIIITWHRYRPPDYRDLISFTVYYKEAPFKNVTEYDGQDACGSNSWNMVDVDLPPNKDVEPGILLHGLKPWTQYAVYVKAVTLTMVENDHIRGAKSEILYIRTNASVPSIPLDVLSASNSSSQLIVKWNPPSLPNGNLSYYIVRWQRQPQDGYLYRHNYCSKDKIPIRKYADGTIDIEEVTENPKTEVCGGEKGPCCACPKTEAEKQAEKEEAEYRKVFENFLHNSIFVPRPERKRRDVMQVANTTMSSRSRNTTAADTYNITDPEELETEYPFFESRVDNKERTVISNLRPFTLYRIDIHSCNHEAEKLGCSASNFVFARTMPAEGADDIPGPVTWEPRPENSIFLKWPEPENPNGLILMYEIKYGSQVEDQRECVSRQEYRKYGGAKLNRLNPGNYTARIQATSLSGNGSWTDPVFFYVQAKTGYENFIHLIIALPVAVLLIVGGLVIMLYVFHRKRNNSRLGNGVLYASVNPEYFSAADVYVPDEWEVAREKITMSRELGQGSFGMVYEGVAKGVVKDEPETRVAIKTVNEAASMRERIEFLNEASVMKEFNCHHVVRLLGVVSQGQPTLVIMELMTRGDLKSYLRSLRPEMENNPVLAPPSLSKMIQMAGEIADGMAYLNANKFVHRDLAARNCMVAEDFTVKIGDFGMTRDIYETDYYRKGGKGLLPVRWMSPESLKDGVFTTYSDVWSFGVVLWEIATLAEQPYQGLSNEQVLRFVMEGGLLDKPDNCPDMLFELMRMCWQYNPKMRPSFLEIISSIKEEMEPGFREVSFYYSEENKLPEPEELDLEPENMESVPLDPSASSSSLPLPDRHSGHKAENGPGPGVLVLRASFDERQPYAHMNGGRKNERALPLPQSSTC
Outline: (§1)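 Autophosphorylation of IGF-1R or IR is measured in NIH-3T3 lines overexpressing each human receptor after 2 h compound pretreatment and a 15 min ligand challenge (IGF-1 30 ng/mL; insulin 3 ug/mL). Fluorescence is normalised to 100% stimulation.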

[3] = biological target: T2, IR (NIH-3T3 cells over expressing human IGF-1R or IR) (Homo sapiens, UniProt P06213); assay: IR cellular autophosphorylation (DELFIA); conditions: NIH-3T3 cells over expressing IR, insulin stimulated
T2 construct: expressed in transfected cells; host or cells: NIH-3T3 (mouse fibroblasts)
T2 sequence (P06213 28-1382): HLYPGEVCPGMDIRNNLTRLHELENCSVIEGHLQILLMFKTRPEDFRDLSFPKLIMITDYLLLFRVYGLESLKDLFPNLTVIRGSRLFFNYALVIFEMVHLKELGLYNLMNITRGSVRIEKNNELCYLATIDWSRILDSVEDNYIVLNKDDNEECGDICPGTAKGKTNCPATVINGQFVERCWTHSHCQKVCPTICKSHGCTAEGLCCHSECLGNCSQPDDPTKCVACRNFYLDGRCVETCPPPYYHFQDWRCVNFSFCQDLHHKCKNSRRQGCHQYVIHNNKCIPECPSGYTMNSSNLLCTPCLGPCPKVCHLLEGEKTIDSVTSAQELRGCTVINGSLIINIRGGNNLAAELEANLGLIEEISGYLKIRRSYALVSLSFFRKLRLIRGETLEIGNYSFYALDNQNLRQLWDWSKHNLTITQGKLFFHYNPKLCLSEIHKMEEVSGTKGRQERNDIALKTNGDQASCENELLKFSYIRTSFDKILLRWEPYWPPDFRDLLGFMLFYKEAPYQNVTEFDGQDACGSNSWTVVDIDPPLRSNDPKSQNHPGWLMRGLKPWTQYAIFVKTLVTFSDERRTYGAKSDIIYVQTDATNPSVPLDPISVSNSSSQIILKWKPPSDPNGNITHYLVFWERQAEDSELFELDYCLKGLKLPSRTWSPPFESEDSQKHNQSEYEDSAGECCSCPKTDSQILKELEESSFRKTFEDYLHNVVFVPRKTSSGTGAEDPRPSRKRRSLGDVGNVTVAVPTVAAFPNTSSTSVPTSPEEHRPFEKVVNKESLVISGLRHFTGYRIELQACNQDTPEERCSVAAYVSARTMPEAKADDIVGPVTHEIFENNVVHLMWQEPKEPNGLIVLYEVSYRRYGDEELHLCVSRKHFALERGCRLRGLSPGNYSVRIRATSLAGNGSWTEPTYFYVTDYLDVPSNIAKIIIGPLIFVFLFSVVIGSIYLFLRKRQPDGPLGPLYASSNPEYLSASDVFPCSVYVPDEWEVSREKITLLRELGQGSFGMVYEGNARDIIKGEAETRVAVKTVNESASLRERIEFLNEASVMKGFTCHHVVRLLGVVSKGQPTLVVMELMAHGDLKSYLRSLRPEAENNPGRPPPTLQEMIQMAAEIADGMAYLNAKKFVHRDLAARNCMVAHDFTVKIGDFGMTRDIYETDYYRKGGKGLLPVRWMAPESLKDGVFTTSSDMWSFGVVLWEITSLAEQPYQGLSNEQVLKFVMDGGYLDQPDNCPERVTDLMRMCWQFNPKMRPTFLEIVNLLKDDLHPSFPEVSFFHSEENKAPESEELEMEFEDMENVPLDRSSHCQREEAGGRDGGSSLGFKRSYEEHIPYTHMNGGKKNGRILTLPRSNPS
Outline: as §1

IC50 [1] [nM] | IC50 [2] [nM] | IC50 [3] [nM] | SMILES
< 250 | < 100 | < 100 | COc1cc(N2CCC(N3CCN(C)CC3)CC2)ccc1Nc1nccc(-c2c(-c3cccc(C(=O)Nc4c(F)cccc4F)c3)nc3ccccn23)n1 [Example 79, N-(2,6-difluorophenyl)-3-{3-[2-({2-(methyloxy)-4-[4-(4-methyl-1-piperazinyl)-1-piperidinyl]phenyl}amino)-4-pyrimidinyl]imidazo[1,2-a]pyridin-2-yl}benzamide]
< 250 | < 100 | < 100 | COc1cc(N2CCC(N3CCC(O)CC3)CC2)ccc1Nc1nccc(-c2c(-c3cccc(C(=O)Nc4c(F)cccc4F)c3)nc3ccccn23)n1 [Example 80, N-(2,6-difluorophenyl)-3-[3-(2-{[4-(4-hydroxy-1,4′-bipiperidin-1′-yl)-2-(methyloxy)-phenyl]amino}-4-pyrimidinyl)imidazo[1,2-a]pyridin-2-yl]benzamide]
< 250 | < 100 | < 100 | COc1cc(N2CCC(N3CCC(O)CC3)CC2)ccc1Nc1nccc(-c2c(-c3ccc(OC)c(C(=O)Nc4c(F)cccc4F)c3)nc3ccccn23)n1 [Example 81, N-(2,6-difluorophenyl)-5-[3-(2-{[4-(4-hydroxy-1,4′-bipiperidin-1′-yl)-2-(methyloxy)phenyl]-amino}-4-pyrimidinyl)imidazo[1,2-a]pyridin-2-yl]-2-(methyloxy)benzamide]
250 to 1000 | < 100 | 100 to 500 | COc1cc(N2CCC(N3CCC[C@H](O)C3)CC2)ccc1Nc1nccc(-c2c(-c3cccc(C(=O)Nc4c(F)cccc4F)c3)nc3ccccn23)n1 [Example 83, N-(2,6-difluorophenyl)-3-[3-(2-{[4-[(3S)-3-hydroxy-1,4′-bipiperidin-1′-yl]-2-(methyloxy)phenyl]amino}-4-pyrimidinyl)imidazo[1,2-a]pyridin-2-yl]benzamide]
250 to 1000 | 100 to 500 | 100 to 500 | COc1cc(N2CCC(N3CCSCC3)CC2)ccc1Nc1nccc(-c2c(-c3cccc(C(=O)Nc4c(F)cccc4F)c3)nc3ccccn23)n1 [Example 85, N-(2,6-difluorophenyl)-3-{3-[2-({2-(methyloxy)-4-[4-(4-thiomomholinyl)-1-piperidinyl]phenyl}amino)-4-pyrimidinyl]imidazo[1,2-a]pyridin-2-yl}benzamide]
< 250 | < 100 | < 100 | COc1cc(N2CCN(C3CCN(CCS(C)(=O)=O)CC3)CC2)ccc1Nc1nccc(-c2c(-c3cccc(C(=O)Nc4c(F)cccc4F)c3)nc3ccccn23)n1 [Example 89, N-(2,6-difluorophenyl)-3-[3-(2-{[2-(methyloxy)-4-(4-{1-[2-(methylsulfonyl)ethyl]-4-piperidinyl}-1-piperazinyl)phenyl]amino}-4-pyrimidinyl)imidazo[1,2-a]pyridin-2-yl]benzamide]
< 250 | < 100 | < 100 | CCOc1cc(N2CCN(C3CCN(CCS(C)(=O)=O)CC3)CC2)ccc1Nc1nccc(-c2c(-c3cccc(C(=O)Nc4c(F)cccc4F)c3)nc3ccccn23)n1 [Example 92, N-(2,6-difluorophenyl)-3-[3-(2-{[2-(ethyloxy)-4-(4-{1-[2-(methylsulfonyl)ethyl]-4-piperidinyl}-1-piperazinyl)phenyl]amino]-4-pyrimidinyl)imidazo[1,2-a]pyridin-2-yl]benzamide]

Continued, molecule first:

SMILES | IC50 [1] [nM] | IC50 [2] [nM] | IC50 [3] [nM]
O=C(Nc1c(F)cccc1F)c1cccc(-c2nc3ccccn3c2-c2ccnc(Nc3ccc(N4CCC(N5CCCCC5)CC4)cc3)n2)c1 [Example 82, 3-[3-(2-{[4-(1,4′-bipiperidin-1′-yl)phenyl]amino}-4-pyrimidinyl)imidazo[1,2-a]pyridin-2-yl]-N-(2,6-difluorophenyl)benzamide] | < 250 | < 100 | 100 to 500
COc1cc(N2CCC(N3C[C@@H]4C[C@H]3CN4CCF)CC2)ccc1Nc1nccc(-c2c(-c3cccc(C(=O)Nc4c(F)cccc4F)c3)nc3ccccn23)n1 [Example 86, N-(2,6-difluorophenyl)-3-[3-(2-{[4-{4-[(1 S,4S)-5-(2-fluoroethyl)-2,5-diazabicyclo-[2.2.1]hept-2-yl]-1-piperidinyl}-2-(methyloxy)phenyl]amino}-4-pyrimidinyl)imidazo[1,2-a]pyridin-2-yl]benzamide] | 250 to 1000 | < 100 | < 100
COc1cc(N2CCN(C3CCN(CCF)CC3)CC2)ccc1Nc1nccc(-c2c(-c3cccc(C(=O)Nc4c(F)cccc4F)c3)nc3ccccn23)n1 [Example 90, N-(2,6-difluorophenyl)-3-[3-(2-{[4-{4-[1-(2-fluoroethyl)-4-piperidinyl]-1-piperazinyl}-2-(methyloxy)phenyl]amino}-4-pyrimidinyl)imidazo[1,2-a]pyridin-2-yl]benzamide] | 250 to 1000 | < 100 | < 100
CCOc1cc(N2CCN(C3CCN(CCF)CC3)CC2)ccc1Nc1nccc(-c2c(-c3cccc(C(=O)Nc4c(F)cccc4F)c3)nc3ccccn23)n1 [Example 91, N-(2,6-difluorophenyl)-3-(3-{2-[(2-(ethyloxy)-4-{4-[1-(2-fluoroethyl)-4-piperidinyl]-1-piperazinyl}phenyl)amino]-4-pyrimidinyl}imidazo[1,2-a]pyridin-2-yl)benzamide] | 250 to 1000 | < 100 | < 100
COc1cc([C@H]2CC[C@@H](N3CCN(CCS(C)(=O)=O)CC3)CC2)ccc1Nc1nccc(-c2c(-c3cccc(C(=O)Nc4c(F)cccc4F)c3)nc3ccccn23)n1 [Example 93, N-(2,6-difluorophenyl)-3-[3-(2-{[2-(methyloxy)-4-(cis-4-{4-[2-(methylsulfonyl)-ethyl]-1-piperazinyl}cyclohexyl)phenyl]amino]-4-pyrimidinyl)imidazo[1,2-a]pyridin-2-yl]benzamide] | 250 to 1000 | < 100 | < 100
COc1cc([C@H]2CC[C@H](N3CCN(CCS(C)(=O)=O)CC3)CC2)ccc1Nc1nccc(-c2c(-c3cccc(C(=O)Nc4c(F)cccc4F)c3)nc3ccccn23)n1 [Example 94, N-(2,6-difluorophenyl)-3-[3-(2-{[2-(methyloxy)-4-(trans-4-{4-[2-(methylsulfonyl)-ethyl]-1-piperazinyl}cyclohexyl)phenyl]amino}-4-pyrimidinyl)imidazo[1,2-a]pyridin-2-yl]benzamide] | > 1000 | < 100 | 100 to 500
COc1cc(N2CCC(N3CCCCC3)CC2)c(Cl)cc1Nc1nccc(-c2c(-c3cccc(C(=O)Nc4c(F)cccc4F)c3)nc3ccccn23)n1 [Example 104, 3-[3-(2-{[4-(1,4′-bipiperidin-1′-yl)-5-chloro-2-(methyloxy)phenyl]amino]-4-pyrimidinyl)imidazo[1,2-a]pyridin-2-yl]-N-(2,6-difluorophenyl)benzamide] | 250 to 1000 | < 100 | < 100
COc1cc(N2CCC(N3CCCCC3)CC2)c(Cl)cc1Nc1nccc(-c2c(-c3ccc(OC)c(C(=O)Nc4c(F)cccc4F)c3)nc3ccccn23)n1 [Example 105, 5-[3-(2-{[4-(1,4′-bipiperidin-1′-yl)-5-chloro-2-(methyloxy)phenyl]amino]-4-pyrimidinyl)imidazo[1,2-a]pyridin-2-yl]-N-(2,6-difluorophenyl)-2-(methyloxy)benzamide] | < 250 | < 100 | < 100
COc1cc(N2CCC(N3CCCCC3)CC2)c(F)cc1Nc1nccc(-c2c(-c3cccc(C(=O)Nc4c(F)cccc4F)c3)nc3ccccn23)n1 [Example 106, 3-[3-(2-{[4-(1,4′-bipiperidin-1′-yl)-5-fluoro-2-(methyloxy)phenyl]amino}-4-pyrimidinyl)imidazo[1,2-a]pyridin-2-yl]-N-(2,6-difluorophenyl)benzamide] | 250 to 1000 | < 100 | < 100
COc1cc(N2CCC(N3CCCCC3)CC2)c(F)cc1Nc1nccc(-c2c(-c3ccc(OC)c(C(=O)Nc4c(F)cccc4F)c3)nc3ccccn23)n1 [Example 107, 5-[3-(2-{[4-(1,4′-bipiperidin-1′-yl)-5-fluoro-2-(methyloxy)phenyl]amino}-4-pyrimidinyl)imidazo[1,2-a]pyridin-2-yl]-N-(2,6-difluorophenyl)-2-(methyloxy)benzamide] | 250 to 1000 | < 100 | < 100
COc1cc(N2CCC(N3CCCCC3)CC2)c(C)cc1Nc1nccc(-c2c(-c3ccc(OC)c(C(=O)Nc4c(F)cccc4F)c3)nc3ccccn23)n1 [Example 109, 5-[3-(2-{[4-(1,4′-bipiperidin-1′-yl)-5-methyl-2-(methyloxy)phenyl]amino]-4-pyrimidinyl)imidazo[1,2-a]pyridin-2-yl]-N-(2,6-difluorophenyl)-2-(methyloxy)benzamide] | < 250 | < 100 | < 100
COc1cc(N2CCC(O)CC2)ccc1Nc1nccc(-c2c(-c3ccc(OC)c(C(=O)Nc4c(F)cccc4F)c3)nc3ccccn23)n1 [Example 122, N-(2,6-difluorophenyl)-5-[3-(2-{[4-(4-hydroxy-1-piperidinyl)-2-(methyloxy)phenyl]amino}-4-pyrimidinyl)imidazo[1,2-a]pyridin-2-yl]-2-(methyloxy)benzamide] | < 250 | < 100 | < 100
CCOc1ccc(-c2nc3ccccn3c2-c2ccnc(Nc3ccc(CCN4CCN(C)CC4)cc3OC)n2)cc1C(=O)Nc1c(F)cccc1F [Example 133, N-(2,6-difluorophenyl)-2-(ethyloxy)-5-{3-[2-({2-(methyloxy)-4-[2-(4-methyl-1-piperazinyl)ethyl]phenyl}amino)-4-pyrimidinyl]imidazo[1,2-a]pyridin-2-yl}benzamide] | 250 to 1000 | < 100 | < 100
